System: aorta of HHcy and HHcy/HG Cbs−/+ mice
Test: Endothelium-dependent vascular relaxation to ACh in thoracic aorta after in vivo calpain inhibitor administration
Set-up: species or system mouse
Settings: 2 mg/kg BW i.p. daily for 2 weeks, p<0.05
Protocol: Images (Left Panel) and quantification (Right Panel) showing HHcy and HG activates calpain in mouse aortic endothelial cells (MAECs, P0) isolated from CBS^−/+ mice (FIG. 3A). Calpain activity was measured in intact MAECs by the fluorescent substrate t-BOC-Leu-Met-CMAC (T-BOC, 10 μmol/L, 30 min). In FIG. 3B, calpain inhibitors rescued endothelium-dependent vascular relaxation to ACh in the aorta of HHcy CBS^−/+ and HHcy/HG CBS^−/+ mice in the presence of calpain inhibitors in vivo (Left Panel) and ex vivo (Right Panel). Left Panel: Calpain inhibitor MDL28170 (MDL, Sigma #M6690) was administrated in vivo by i.p. injection (2 mg/kg/day, 2 weeks). Right Panel: The arterial rings were incubated with calpain inhibitors: MDL, calpeptin and N-Acetyl-Leu-Leu-Met-CHO (ALLM, 20 μmol/L for all, Enzo life Sciences, PI-100-0005) for 1 hr. […]
Endothelial function was assessed in the mouse thoracic aorta using a multiple-wire myograph (DMT 610) (Cheng et al., 2011, Blood 118:1998-2006; Cheng et al., 2007, Can J Physiol Pharmacol 85:404-412; Cheng et al., 2001, Hypertension 37:433-439). […]

Which “endothelial function (endothelium-dependent vascular relaxation to ACh)” value does the source give for MDL28170 here?
The value was “largely improved”.

Reference: patent US20160089391A1, “Molecular Targets for Cardiovascular Disease” (Temple University-of the Commonwealth System of Higher …, priority 2014, published 2016)
